Two compounds from ChEMBL document CHEMBL1140434, “1,2,4-Triazolo[1,5-a]quinoxaline as a versatile tool for the design of selective human A3 adenosine receptor antagonists: synthesis, biological evaluation, and molecular modeling studies of 2-(hetero)aryl- and 2-carboxy-substituted derivatives” (J Med Chem, 2005) can be followed below.

A value given as a limit tells only on which side of the number the result lay.

The target of experiment [1] is Adenosine receptor A2a (Bos taurus). Nature of the experiment: Displacement of [3H]CGS 21680 from adenosine A2A receptor in bovine striatal membranes.
For experiment [2], the target named is T1, Adenosine receptor A1 (Bos taurus, UniProt P28190).
T1 sequence (P28190 whole entry): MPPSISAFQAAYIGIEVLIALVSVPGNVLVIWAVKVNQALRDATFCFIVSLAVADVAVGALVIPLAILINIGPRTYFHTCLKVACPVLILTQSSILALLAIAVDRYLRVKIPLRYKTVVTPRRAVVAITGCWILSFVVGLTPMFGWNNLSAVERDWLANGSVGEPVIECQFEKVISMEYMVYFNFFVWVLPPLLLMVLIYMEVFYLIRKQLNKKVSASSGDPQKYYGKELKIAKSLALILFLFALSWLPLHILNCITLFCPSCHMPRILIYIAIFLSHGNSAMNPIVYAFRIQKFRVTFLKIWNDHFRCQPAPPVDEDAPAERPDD
Nature of the experiment: Displacement of [3H]CHA from adenosine A1 receptor in bovine cerebral cortical membranes. Format: cell membranes.

Experiment [3] is described as follows: Selectivity for human adenosine A3 receptor over human adenosine A2A receptor.
Experiment [4] has as its target Adenosine receptors; A1 & A3 (Homo sapiens) (UniProt P30542+P0DMS8). Put plainly: Selectivity for human adenosine A3 receptor over human adenosine A1 receptor. Format: protein assay.
Experiment [5] has as its target Adenosine receptor A2a (Homo sapiens) (UniProt P29274). Nature of the experiment: Percentage inhibition of [3H]NECA binding to cloned human adenosine A2A receptor expressed in CHO cells at 10 uM. In kind it is cell-based.
The target of experiment [6] is T2, Adenosine receptor A1 (Homo sapiens, UniProt P30542).
T2 sequence (P30542 whole entry): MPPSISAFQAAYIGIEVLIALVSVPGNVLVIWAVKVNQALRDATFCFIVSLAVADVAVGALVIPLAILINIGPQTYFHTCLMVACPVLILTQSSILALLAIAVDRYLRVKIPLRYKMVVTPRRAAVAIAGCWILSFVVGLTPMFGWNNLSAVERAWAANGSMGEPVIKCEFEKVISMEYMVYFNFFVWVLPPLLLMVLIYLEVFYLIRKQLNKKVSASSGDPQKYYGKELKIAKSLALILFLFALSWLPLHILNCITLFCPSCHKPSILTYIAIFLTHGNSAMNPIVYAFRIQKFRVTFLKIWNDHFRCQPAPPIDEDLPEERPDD
Put plainly: Displacement of [3H]CHA from cloned human adenosine A1 receptor expressed in CHO cells. Format: cell-based.

Another experiment concerns the target T3, Adenosine receptor A3 (Homo sapiens, UniProt P0DMS8).
T3 sequence (P0DMS8 whole entry): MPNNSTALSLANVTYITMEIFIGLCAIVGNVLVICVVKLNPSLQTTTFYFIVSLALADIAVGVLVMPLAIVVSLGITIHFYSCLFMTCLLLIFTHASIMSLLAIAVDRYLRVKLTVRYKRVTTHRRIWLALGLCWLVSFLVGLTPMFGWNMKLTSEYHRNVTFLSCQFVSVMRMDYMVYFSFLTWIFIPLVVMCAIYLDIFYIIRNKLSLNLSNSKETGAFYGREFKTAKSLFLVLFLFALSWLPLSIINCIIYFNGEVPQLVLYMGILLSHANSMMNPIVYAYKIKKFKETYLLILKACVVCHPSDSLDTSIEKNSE
Put plainly: Displacement of [125I]AB-MECA from human adenosine A3 receptor expressed in CHO cells. In kind it is cell-based.

The target in experiment [7] is T4, Adenosine receptor A1 (Bos taurus) (UniProt P28190).
T4 sequence (whole entry): T1 sequence (P28190 whole entry)
Put plainly: Percentage inhibition of [3H]CHA binding to adenosine A1 receptor in bovine cerebral cortical membranes at 10 uM. Format: cell membranes.

In experiment [8] the test system is Adenosine receptor A2a (Bos taurus). Nature of the experiment: Percentage inhibition of [3H]CGS 21680 binding to adenosine A2A receptor in bovine striatal membranes at 20 uM. The settings on record: Striatum, Membrane.
Experiment [9] addresses T5, Adenosine receptor A3 (Homo sapiens) (UniProt P0DMS8).
T5 sequence (whole entry): T3 sequence (P0DMS8 whole entry)
Nature of the experiment: Percentage inhibition of [125I]AB-MECA binding to human adenosine A3 receptor expressed in CHO cells at 1 uM. In kind it is cell-based.

Chain of Adenosine receptor A2a (Homo sapiens) (P29274 whole entry): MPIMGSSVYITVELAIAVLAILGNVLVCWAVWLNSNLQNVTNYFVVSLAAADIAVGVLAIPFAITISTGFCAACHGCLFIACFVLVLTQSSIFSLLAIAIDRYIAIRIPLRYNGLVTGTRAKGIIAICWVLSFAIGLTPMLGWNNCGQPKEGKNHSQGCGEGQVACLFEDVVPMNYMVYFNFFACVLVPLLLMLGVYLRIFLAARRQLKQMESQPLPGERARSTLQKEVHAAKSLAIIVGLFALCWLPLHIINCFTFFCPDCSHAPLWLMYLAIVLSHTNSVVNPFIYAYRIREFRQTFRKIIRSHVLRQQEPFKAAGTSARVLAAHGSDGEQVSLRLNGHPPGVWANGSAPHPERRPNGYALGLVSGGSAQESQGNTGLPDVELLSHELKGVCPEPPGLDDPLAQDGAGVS

Consider `Oc1nc2ccc(Cl)cc2n2nc(-c3ccco3)nc12`, for which the Ki in experiment [1] was found to be 5.16 µM; at Adenosine receptor A1 [2] it was 3.66 µM; at Adenosine receptor A1 [6], 2.74 µM; on Adenosine receptor A3, 0.006 µM. In addition, the figures for the Ratio Ki in [3] and in [4] were > 1700 and 457, respectively. In [5], this compound came in with an inhibition of 33%.
On to `CCOC(=O)c1nc2c(O)nc3ccc([N+](=O)[O-])cc3n2n1`, for which the inhibition in experiment [7] was 58%; in experiment [8], 7.4%; in experiment [9] it was 0%.
